Reference: patent publication US10104893B2, “Pesticidally active polycyclic derivatives with sulfur substituted five membered ring heterocyles” (Syngenta Participations AG, priority 2015, dated 2018)
Like-named read-outs stand apart in the source and are kept apart here.

Tests used:
[1] = test system: Diabrotica balteata (Corn Root Worm); experiment: Insecticidal action against Diabrotica balteata; assay type: in vivo; conditions: 96 h, read-out: effect in at least one of the two categories (mortality or growth inhibition); for percent effect (mortality or growth inhibition) at 200 ppm: application rate of 200 ppm, maize sprouts, L2 larvae, 4 days after infestation
Description: Example B2: Insecticidal Action Against Diabrotica balteata (Corn Root Worm)
Maize sprouts placed onto an agar layer in 24-well microtiter plates were treated with aqueous test solutions prepared from 10′000 ppm DMSO stock solutions by spraying. After drying, the plates were infested with L2 larvae (6 to 10 per well). The samples were assessed for mortality and growth inhibition in comparison to untreated samples 4 days after infestation.

[2] = test system: Euschistus heros (Neotropical Brown Stink Bug); experiment: Insecticidal action against Euschistus heros; assay type: in vivo; conditions: 120 h, read-out: effect in at least one of the two categories (mortality or growth inhibition); for percent effect (mortality or growth inhibition) at 200 ppm: application rate of 200 ppm, soybean leaves, N2 nymphs, 5 days after infestation
Description: Example B3: Insecticidal Action Against Euschistus heros (Neotropical Brown Stink Bug)
Soybean leaves on agar in 24-well microtiter plates were sprayed with aqueous test solutions prepared from 10′000 ppm DMSO stock solutions. After drying the leaves were infested with N2 nymphs. The samples were assessed for mortality and growth inhibition in comparison to untreated samples 5 days after infestation.

[3] = test system: Plutella xylostella (Diamond Back Moth); experiment: Insecticidal action against Plutella xylostella; assay type: in vivo; conditions: 120 h, read-out: effect in at least one of the two categories (mortality or growth inhibition); for percent effect (mortality or growth inhibition) at 200 ppm: application rate of 200 ppm, artificial diet, L2 larvae, 5 days after infestation
Description: Example B7: Insecticidal Action Against Plutella xylostella (Diamond Back Moth)
24-well microtiter plates with artificial diet were treated with aqueous test solutions prepared from 10′000 ppm DMSO stock solutions by pipetting. After drying, the plates were infested with L2 larvae (10 to 15 per well). The samples were assessed for mortality and growth inhibition in comparison to untreated samples 5 days after infestation.

[4] = test system: Spodoptera littoralis (Egyptian Cotton Leaf Worm); experiment: Insecticidal action against Spodoptera littoralis, sprayed cotton leaf discs; assay type: in vivo; conditions: foliar, 72 h, read-out: control (mortality, anti-feeding effect, growth inhibition)
Description: Example B8: Insecticidal Action Against Spodoptera littoralis (Egyptian Cotton Leaf Worm)
Cotton leaf discs were placed onto agar in 24-well microtiter plates and sprayed with aqueous test solutions prepared from 10′000 ppm DMSO stock solutions. After drying the leaf discs were infested with five L1 larvae. The samples were assessed for mortality, anti-feeding effect, and growth inhibition in comparison to untreated samples 3 days after infestation. Control of Spodoptera littoralis by a test sample is given when at least one of the categories mortality, anti-feeding effect, and growth inhibition is higher than the untreated sample.

[5] = test system: Myzus persicae (Green Peach Aphid); experiment: Insecticidal action against Myzus persicae: feeding/contact activity; assay type: in vivo; conditions: foliar, 144 h
Description: Example B4: Insecticidal Action Against Myzus persicae (Green Peach Aphid): Feeding/Contact Activity
Sunflower leaf discs were placed onto agar in a 24-well microtiter plate and sprayed with aqueous test solutions prepared from 10′000 ppm DMSO stock solutions. After drying, the leaf discs were infested with an aphid population of mixed ages. The samples were assessed for mortality 6 days after infestation.

[6] = application rate of 200 ppm, cotton leaf discs, L1 larvae, 3 days after infestation

melting point | Structure (SMILES) | percent effect (mortality or growth inhibition) at 200 ppm [1] | percent effect (mortality or growth inhibition) at 200 ppm [2] | percent effect (mortality or growth inhibition) at 200 ppm [3] | mortality at 200 ppm [4, 6] | other results
 | CCS(=O)(=O)c1cc(I)sc1-c1nc2cc(C(F)(F)F)n(C)c(=O)c2n1C [A44, 2-(3-ethylsulfonyl-5-iodo-2-thienyl)-3,5-dimethyl-6-(trifluoromethyl)imidazo[4,5-c]pyridin-4-one] | ≥ 80% | ≥ 80% | ≥ 80% | ≥ 80% | 
 | CCSc1cc(-c2ccc(Cl)cc2)sc1-c1nc2cc(C(F)(F)F)n(CC)c(=O)c2n1C [A1, 2-[5-(4-chlorophenyl)-3-ethylsulfanyl-2-thienyl]-5-ethyl-3-methyl-6-(trifluoromethyl)-3aH-imidazo[4,5-c]pyridin-4-one] | ≥ 80% |  | ≥ 80% |  | 
 | CCS(=O)(=O)c1sc(-c2ccc(Cl)cc2)nc1-c1nc2cc(C(F)(F)F)n(C)c(=O)c2n1C [A48, 2-[2-(4-chlorophenyl)-5-ethylsulfonyl-thiazol-4-yl]-3,5-dimethyl-6-(trifluoromethyl)imidazo[4,5-c]pyridin-4-one] | ≥ 80% | ≥ 80% | ≥ 80% | ≥ 80% | 
180 to 182 °C | CCn1c(C(F)(F)F)cc2nc(-c3sc(-c4cc(F)cc(F)c4)cc3S(=O)(=O)CC)n(C)c2c1=O |  |  |  |  | 
 | CCn1c(C(F)(F)F)cc2nc(-c3sc(-c4ccc(Cl)cc4)cc3S(=O)(=O)CC)n(C)c2c1=O [A2, 2-[5-(4-chlorophenyl)-3-ethylsulfonyl-2-thienyl]-5-ethyl-3-methyl-6-(trifluoromethyl)-3aH-imidazo[4,5-c]pyridin-4-one] |  |  |  |  | percent control (mortality or growth inhibition) at 200 ppm [1]: ≥ 80%; percent control (mortality or growth inhibition) at 200 ppm ([2]; in Glycine max): ≥ 80%; mortality at 200 ppm [5]: ≥ 80%; percent control (mortality or growth inhibition) at 200 ppm [3]: ≥ 80%; mortality at 200 ppm [4]: ≥ 80%
194 to 195 °C | CCn1c(C(F)(F)F)cc2nc(-c3sc(-c4cccc(F)c4)cc3S(=O)(=O)CC)n(C)c2c1=O |  |  |  |  | 
